Patent US20120142676A1, “Oxathiazine and dithiine oxides as inhibitors of sulfhydryl-dependent biomolecules” (priority 2010, published 2012)
Read-outs that look alike come from different tables or passages of the source.

Legend:
[1] = tested on: human leukemia K562 cells; assay: K562 cell growth inhibition assay (MTS); format: cell-based; conditions: 72 h incubation, read-out: Median growth inhibitory concentration (IC50) of K562 cells
Experimental: K562 cells were obtained from American Type Culture Collection (Rockville, Md.). These cells were maintained as suspension cultures in alpha minimum essential medium (αMEM) (Gibco BRL, Burlington, Canada) containing 2 mM L-glutamine and supplemented with 10% fetal calf serum (Invitrogen, Burlington, ON, Canada), 20 mM NaHCO3, 20 mM HEPES (Sigma), 100 units/ml penicillin G, and 100 μg/ml streptomycin at pH 7.4 in an atmosphere of 5% CO2 and 95% air at 37° C. For the measurement of growth inhibition, cells in exponential growth were harvested and seeded at 6000 cells/well in 96-well plates (100 μl/well). Drugs were dissolved in DMSO and added to the wells such that the final concentration of DMSO was 0.5% (v/v). After 72 h incubation, 7 μl of 3-(4,5-dimethylthiazol-2-yl)-5-(3-carboxymethoxyphenyl)-2-(4-sulfophenyl)-2H-tetrazolium (MTS) Cell Titer 96® AQueous One Solution (Promega, Md., WI) was added to each well and incubated for a further 3 h. The absorbance was measured in a Molecular Devices (Menlo Park, Calif.) plate reader. The spectrophotometric 96-well plate cell growth inhibition assay measures the ability of the cells to enzymatically reduce MTS. Three replicates were measured at each drug concentration, and the IC50 values and their SEs for growth inhibition were obtained by fitting the absorbance-drug concentration data to a four-parameter logistic equation.

human topoisomerase IIα = biological target: T1, human topoisomerase IIα (Homo sapiens, UniProt P11388); assay: Topoisomerase IIα decatenation inhibition assay; format: biochemical; conditions: K562 cells nuclear extract, kDNA decatenation; for inhibition at 3 µM / inhibition at 30 µM: read-out: % Inhibition of topoisomerase II catalytic activity
T1 construct: 300 ng K562 cells nuclear extract, the amount that gave 80% decatenation; endogenous in cells; host or cells: K562 cells nuclear extract
Experimental: The catalytic inhibition of human topoisomerase IIα by a drug was measured by the ATP-dependent decatenation of kDNA (Topogen, Columbus, Ohio) into minicircles of DNA as we previously described (Hasinoff 1995 QSAR ICRF-187). The 20 μl reaction mixture contained 0.5 mM ATP, 50 mM Tris-HCl (pH 8.0), 120 mM KCl, 10 mM MgCl2, 30 μg/ml bovine serum albumin, 40 ng kDNA, drug or DMSO (0.5 μl) and 300 ng K562 cells nuclear extract, the amount that gave 80% decatenation. The enzymatic reaction was carried out at 37° C. and was terminated by the addition of 6 μl of buffer containing 5 mM Tris pH 8.0, 30% w/v sucrose, 0.5% bromophenol blue, and 125 mM EDTA. The resulting mixture was separated by electrophoresis (2 h at 8 V/cm) on an agarose gel prepared from 1.2% w/v agarose and 0.5 μg/ml ethidium bromide in TAE buffer pH 8.0 (40 mM Tris base, 0.114% (v/v) glacial acetic acid, 2 mM EDTA). The DNA in the gel was imaged by its fluorescence on an Alpha Annotech Fluorchem 8900 imaging system equipped with a 365 nm illuminator and a CCD camera. Densitometry scanning of gel photographs was used to obtain the fluorescence intensity of the band corresponding to the DNA minicircles. The percentage inhibition of K562 topoisomerase II catalytic activity at concentrations of 3 and 30 μM was determined using the following equation: % Inhibition=[(1−(Bdrug−Bbackground)/Bdmso]×100, where Bdrug is the band intensity value for the enzymatic reaction sample treated with drug, Bbackground is the band intensity value for sample without the enzyme, and Bdmso is the band intensity value for the enzymatic reaction sample treated with DMSO solvent only.

T1 sequence (P11388 whole entry): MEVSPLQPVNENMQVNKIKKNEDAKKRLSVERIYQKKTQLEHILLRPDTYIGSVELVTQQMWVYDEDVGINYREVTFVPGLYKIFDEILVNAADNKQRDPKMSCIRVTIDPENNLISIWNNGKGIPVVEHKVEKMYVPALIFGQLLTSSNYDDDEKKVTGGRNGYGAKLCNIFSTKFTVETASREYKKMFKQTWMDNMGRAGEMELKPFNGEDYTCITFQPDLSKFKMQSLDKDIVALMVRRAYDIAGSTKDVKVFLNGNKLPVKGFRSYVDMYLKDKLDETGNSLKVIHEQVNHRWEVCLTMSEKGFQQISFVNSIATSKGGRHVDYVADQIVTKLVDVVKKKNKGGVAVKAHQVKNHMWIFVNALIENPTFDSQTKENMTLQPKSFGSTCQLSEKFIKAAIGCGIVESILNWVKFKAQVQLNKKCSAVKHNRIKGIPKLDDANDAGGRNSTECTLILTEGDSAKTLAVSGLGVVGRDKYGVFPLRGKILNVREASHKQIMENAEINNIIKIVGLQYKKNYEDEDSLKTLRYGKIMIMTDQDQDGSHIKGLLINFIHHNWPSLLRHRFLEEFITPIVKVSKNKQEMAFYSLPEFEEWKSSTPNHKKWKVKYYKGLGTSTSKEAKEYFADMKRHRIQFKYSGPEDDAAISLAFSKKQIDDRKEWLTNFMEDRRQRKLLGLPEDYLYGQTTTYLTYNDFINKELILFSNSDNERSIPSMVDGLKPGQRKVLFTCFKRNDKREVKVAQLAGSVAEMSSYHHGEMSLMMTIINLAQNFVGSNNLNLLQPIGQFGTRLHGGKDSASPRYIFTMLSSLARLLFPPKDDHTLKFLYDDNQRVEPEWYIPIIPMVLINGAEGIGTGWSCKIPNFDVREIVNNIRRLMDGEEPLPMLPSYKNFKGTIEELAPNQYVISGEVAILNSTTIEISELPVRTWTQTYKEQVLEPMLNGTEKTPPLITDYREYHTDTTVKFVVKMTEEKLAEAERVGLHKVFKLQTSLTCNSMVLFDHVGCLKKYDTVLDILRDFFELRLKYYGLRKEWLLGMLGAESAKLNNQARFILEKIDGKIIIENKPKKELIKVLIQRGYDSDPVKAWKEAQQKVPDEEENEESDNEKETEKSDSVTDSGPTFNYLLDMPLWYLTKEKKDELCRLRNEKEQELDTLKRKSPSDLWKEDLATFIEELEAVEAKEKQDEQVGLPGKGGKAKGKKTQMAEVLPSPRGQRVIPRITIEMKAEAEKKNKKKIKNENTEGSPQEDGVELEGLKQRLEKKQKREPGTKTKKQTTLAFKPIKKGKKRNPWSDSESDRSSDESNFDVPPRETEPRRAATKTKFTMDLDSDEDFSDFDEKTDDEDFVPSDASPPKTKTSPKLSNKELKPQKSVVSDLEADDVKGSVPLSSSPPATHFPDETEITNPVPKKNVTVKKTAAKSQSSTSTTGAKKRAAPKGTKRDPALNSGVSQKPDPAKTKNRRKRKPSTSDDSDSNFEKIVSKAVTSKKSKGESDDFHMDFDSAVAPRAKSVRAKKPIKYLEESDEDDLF

IC50 [1]	% Inhibition of topoisomerase II catalytic activity (human topoisomerase IIα; 3 μM)	% Inhibition of topoisomerase II catalytic activity (human topoisomerase IIα; 30 μM)	IC50 ([1]; Homo sapiens, K562, 72 h)	inhibition at 3 µM (human topoisomerase IIα; 3 μM)	inhibition at 30 µM (human topoisomerase IIα; 30 μM)	melting point	Compound
0.7 µM	100%	100%					Cc1ccc2sc(C3=NOCC[S+]3[O-])c(C)c2c1 (stereo not shown) [compound 12]
1 µM	100%	100%					CC1=C(CS(=O)(=O)c2ccccc2)S(=O)(=O)CCS1(=O)=O [compound 22]
			3 µM	100%	100%	190 to 191 °C	CCOC(=O)C1=C(c2ccccc2)S(=O)(=O)CCS1(=O)=O [compound 17, ethyl 1,1,4,4-tetraoxo-3-phenyl-5,6-dihydro-1λ^6,4λ^6-dithiine-2carboxylate]
4 µM	80%	100%					CCC1CS(=O)(=O)C(c2ccccc2)=C(c2ccccc2)S1(=O)=O (stereo not shown) [compound 16]
2.3 µM	100%	100%					COCC1=C(COC)S(=O)(=O)CCS1(=O)=O [compound 23]
			2.5 µM	100%	100%	142 to 145 °C	CCOC(=O)C1=C(C(F)(F)F)S(=O)(=O)CCS1(=O)=O [compound 24, ethyl 1,1,4,4-tetraoxo-3-(trifluoromethyl)-5,6-dihydro-1λ^6,4λ^6-dithiine-2-carboxylate]
0.5 µM	100%	100%					O=S1(=O)CCON=C1C1=Cc2ccccc2S1(=O)=O [compound 15]
4 µM	100%	100%					CC1C(C)S(=O)(=O)C(c2ccccc2)=CS1(=O)=O (stereo not shown) [compound 19]
1 µM					100%	154 to 156 °C	CCOC(=O)C1=C(C(=O)OCC)S(=O)(=O)CCS1(=O)=O [compound 20, 2,3-diethyl 1,1,4,4-tetraoxo-5,6-dihydro-1λ^6,4λ^6-dithiine-2,3-dicarboxylate]
0.9 µM	100%	100%					CCOC(=O)c1ccc(C2=NOCC[S+]2[O-])s1 (stereo not shown) [compound 7]
			0.6 µM	100%	100%		CC1=C(COc2ccccc2)S(=O)(=O)CCS1(=O)=O [compound 21, 2-methyl-3-(phenoxymethyl)-5,6-dihydro-1λ^6,4λ^6-dithiine-1,1,4,4-tetrone]
1 µM	100%	100%					[O-][S+]1CCON=C1c1cc2ccccc2[s+]1[O-] (stereo not shown) [compound 14]
			4 µM	80%	100%	208 to 210 °C	[O-][S+]1CCON=C1c1nnc(-c2cccc(Cl)c2)o1 (stereo not shown) [compound 8, 3-[5-(3-chlorophenyl)-1,3,4-oxadiazol-2-yl]-5,6-dihydro-1,4λ^4,2-oxathiazin-4-one]
			1 µM	100%	100%		[O-][S+]1CCON=C1c1sc2ccccc2c1Br (stereo not shown) [compound 13, 3-(3-bromo-1-benzothiophen-2-yl)-5,6-dihydro-1,4λ^4,2-oxathiazin-4-one]
2 µM	100%	100%					CC1C[S+]([O-])C(c2cc3ccccc3s2)=NO1 (stereo not shown) [compound 11]
5 µM	70%	100%					CCCCC1=C(c2ccccc2)S(=O)(=O)CCS1(=O)=O [compound 18]
11 µM	70%	100%				68 to 70 °C	CCOC(=O)C1=C(C(=O)OCC)S(=O)(=O)CCS1(=O)=O [compound 1]
			0.7 µM	100%	100%	206 to 207 °C	O=C(Nc1ccccc1)C1=NOCCS1(=O)=O [compound 4, 4,4-dioxo-N-phenyl-5,6-dihydro-1, 4λ^6,2-oxathiazine-3-carboxamide]
1 µM	100%	100%					CC1=C(COc2ccccc2)S(=O)(=O)CCS1(=O)=O [compound 2]
			1 µM	100%	100%	150 to 154 °C	O=C(Nc1ccccc1)C1=NOCC[S+]1[O-] (stereo not shown) [compound 3, 4-oxo-5,6-dihydro-N-phenyl-1,4λ^4,2-oxathiazine-3-carboxamide]
0.5 µM	100%	100%					O=S1(=O)CCON=C1c1cc2ccccc2s1 [compound 10]
			4 µM	100%	100%	217 to 219 °C	O=C(Nc1ccccc1)C1=C(C(F)(F)F)S(=O)(=O)CCS1(=O)=O [compound 25, 1,1,4,4-tetraoxo-N-phenyl-3-(trifluoromethyl)-5,6-dihydro-1λ^6,4λ^6-dithiine-2-carboxamide]
